In ChEMBL document CHEMBL1126330, “Synthesis of RP-67,580, a new potent nonpeptide substance P antagonist” (Bioorg Med Chem Lett, 1992):

Columns and labels:
[1] = target: Substance-P receptor (Cavia porcellus, UniProt P30547); assay: Tested for inhibition of contractile effects of Tachykinin receptor 1 in guinea pig ileum preparation.; type: functional, tissue-based; conditions: read-out: pA2 (converted)
[2] = target: Substance-P receptor (Rattus norvegicus, UniProt P14600); assay: Tested for binding affinity towards Tachykinin receptor 1 by using [3H]SP binding assay in rat brain membranes; type: cell membranes
Sequence of Substance-P receptor (Rattus norvegicus, UniProt P14600) (P14600 whole entry): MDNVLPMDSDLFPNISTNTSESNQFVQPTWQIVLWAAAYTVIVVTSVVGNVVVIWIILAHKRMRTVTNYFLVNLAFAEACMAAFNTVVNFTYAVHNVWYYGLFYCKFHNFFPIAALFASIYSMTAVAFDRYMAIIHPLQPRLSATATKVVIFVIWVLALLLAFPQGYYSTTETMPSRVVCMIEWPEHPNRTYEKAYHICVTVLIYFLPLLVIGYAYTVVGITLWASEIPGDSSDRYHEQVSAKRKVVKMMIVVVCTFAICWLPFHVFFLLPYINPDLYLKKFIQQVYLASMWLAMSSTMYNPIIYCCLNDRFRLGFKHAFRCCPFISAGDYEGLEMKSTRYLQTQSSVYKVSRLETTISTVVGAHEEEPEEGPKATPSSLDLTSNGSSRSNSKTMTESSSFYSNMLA

Sequence of Substance-P receptor (Cavia porcellus, UniProt P30547) (P30547 whole entry): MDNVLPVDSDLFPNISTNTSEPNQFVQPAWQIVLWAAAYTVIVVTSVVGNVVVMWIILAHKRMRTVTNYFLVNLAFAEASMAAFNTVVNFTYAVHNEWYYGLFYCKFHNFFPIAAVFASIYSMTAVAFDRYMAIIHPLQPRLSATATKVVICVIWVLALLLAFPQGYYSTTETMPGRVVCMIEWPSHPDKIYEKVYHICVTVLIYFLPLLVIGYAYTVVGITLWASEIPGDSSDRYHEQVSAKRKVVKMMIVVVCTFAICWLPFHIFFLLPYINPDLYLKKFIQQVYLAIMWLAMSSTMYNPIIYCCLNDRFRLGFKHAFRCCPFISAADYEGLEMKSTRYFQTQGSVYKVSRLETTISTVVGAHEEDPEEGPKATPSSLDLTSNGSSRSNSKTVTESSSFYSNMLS

COc1ccccc1CC(=N)N1C[C@@H]2C(=O)CCC(c3ccccc3)(c3ccccc3)[C@@H]2C1
Kb [1]: 63.1 nM
Ki [2]: 4.16 nM
